Laboratory results from PubChem BioAssay AID2060904 (Molecular Pharmacology Branch, DTP, NCI, 2025).

System: 349418-098-R-PDC complex spheroid viability
Assay: Anticancer human tumor 349418-098-R-PDC patient-derived lung adenocarcinoma cell line growth inhibition [RAS]
Conditions: for IC50: curve of first compound; for viability, T/C: stronger effect = lower value
Summary of the method: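 Agents were tested in combination matrices in half-log decrements from a top concentration at or near clinical Cmax (10 microM if undetermined). Targets were multi-cell spheroids of tumour lines plus HUVEC and MSC stromal cells.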

[1] = second compound 0.000949 µM, first compound 0.0316 µM
[2] = second compound 0.000949 µM, first compound 0.1 µM
[3] = second compound 0.000949 µM, first compound 0.316 µM
[4] = second compound 0.000949 µM, first compound 1 µM
[5] = second compound 0.000949 µM, first compound 3.16 µM
[6] = second compound 0.000949 µM, first compound 10 µM
[7] = second compound 0.003 µM, first compound 0.0316 µM
[8] = second compound 0.003 µM, first compound 0.1 µM
[9] = second compound 0.003 µM, first compound 0.316 µM
[10] = second compound 0.003 µM, first compound 1 µM
[11] = second compound 0.003 µM, first compound 3.16 µM
[12] = second compound 0.003 µM, first compound 10 µM
[13] = second compound 0.00949 µM, first compound 0.0316 µM
[14] = second compound 0.00949 µM, first compound 0.1 µM
[15] = second compound 0.00949 µM, first compound 0.316 µM
[16] = second compound 0.00949 µM, first compound 1 µM
[17] = second compound 0.00949 µM, first compound 3.16 µM
[18] = second compound 0.00949 µM, first compound 10 µM
[19] = second compound 0.03 µM, first compound 0.0316 µM
[20] = second compound 0.03 µM, first compound 0.1 µM
[21] = second compound 0.03 µM, first compound 0.316 µM
[22] = second compound 0.03 µM, first compound 1 µM
[23] = second compound 0.03 µM, first compound 3.16 µM
[24] = second compound 0.03 µM, first compound 10 µM
[25] = second compound 0.0949 µM, first compound 0.0316 µM
[26] = second compound 0.0949 µM, first compound 0.1 µM
[27] = second compound 0.0949 µM, first compound 0.316 µM
[28] = second compound 0.0949 µM, first compound 1 µM
[29] = second compound 0.0949 µM, first compound 3.16 µM
[30] = second compound 0.0949 µM, first compound 10 µM
[31] = second compound 0.3 µM, first compound 0.0316 µM
[32] = second compound 0.3 µM, first compound 0.1 µM
[33] = second compound 0.3 µM, first compound 0.316 µM
[34] = second compound 0.3 µM, first compound 1 µM
[35] = second compound 0.3 µM, first compound 3.16 µM
[36] = second compound 0.3 µM, first compound 10 µM
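Further: spheroids exposed to compound for seven days before viability readout.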

Work on `CC1(O)CCCC1n1c(=O)c(C(F)F)cc2cnc(NC3CCN(S(C)(=O)=O)CC3)nc21` (centres undefined) + CCn1c(-c2cccnc2C(C)OC)c2c3cc(ccc31)N1CCOC(CC(NC(=O)C(C(C)C)N(C)C(=O)C3(F)CCN(C(=O)C#CC(C)(C)N(C)C)CC3)C(=O)N3CCCC(N3)C(=O)OCC(C)(C)C2)C1 yielded an IC50 (second compound 0.000949 µM) of 54.1 nM, an IC50 (second compound 0.003 µM) of 54.9 nM and an IC50 (second compound 0.00949 µM) of 76.3 nM. The IC50 (second compound 0.03 µM) was 71 nM, the IC50 (second compound 0.0949 µM) was 64.2 nM and the IC50 (second compound 0.3 µM) was 31.6 nM. For the same compound, the viability, T/C [1] was 60.9%, the viability, T/C [2] was 35.5% and the viability, T/C [3] was 27.6%. For the same compound, the viability, T/C [4] was 21.5%, the viability, T/C [5] was 18.8% and the viability, T/C [6] was 2.67%. It also gave a viability, T/C [7] of 60.3%, a viability, T/C [8] of 38.4% and a viability, T/C [9] of 24.2%. It also gave a viability, T/C [10] of 20.4%, a viability, T/C [11] of 17.7% and a viability, T/C [12] of 2.71%. The viability, T/C [13] was 67.8%, the viability, T/C [14] was 45.8% and the viability, T/C [15] was 23.9%. The viability, T/C [16] was 20.4%, the viability, T/C [17] was 15.9% and the viability, T/C [18] was 3.42%. It also gave a viability, T/C [19] of 70.3%, a viability, T/C [20] of 39.7% and a viability, T/C [21] of 24.8%. For the same compound, the viability, T/C [22] was 19.2%, the viability, T/C [23] was 20% and the viability, T/C [24] was 2.63%. For the same compound, the viability, T/C [25] was 74%, the viability, T/C [26] was 31.6% and the viability, T/C [27] was 22.3%. The viability, T/C [28] was 19.5%, the viability, T/C [29] was 16.4% and the viability, T/C [30] was 2.35%. The viability, T/C [31] was 52.5%, the viability, T/C [32] was 31.6% and the viability, T/C [33] was 22.4%. For the same compound, the viability, T/C [34] was 19%, the viability, T/C [35] was 18.4% and the viability, T/C [36] was 2.97%.

In the case of `CCC(CC)c1cc(NC2CCC(N)C2)n2nccc2n1` (centres undefined) + CCn1c(-c2cccnc2C(C)OC)c2c3cc(ccc31)N1CCOC(CC(NC(=O)C(C(C)C)N(C)C(=O)C3(F)CCN(C(=O)C#CC(C)(C)N(C)C)CC3)C(=O)N3CCCC(N3)C(=O)OCC(C)(C)C2)C1, the IC50 (second compound 0.000949 µM) is reported as 840 nM, the IC50 (second compound 0.003 µM) is reported as 1320 nM and the IC50 (second compound 0.00949 µM) is reported as 793 nM. It also gave an IC50 (second compound 0.03 µM) of 795 nM, an IC50 (second compound 0.0949 µM) of 1060 nM and an IC50 (second compound 0.3 µM) of 629 nM. For the same compound, the viability, T/C [1] was 105%, the viability, T/C [2] was 105% and the viability, T/C [3] was 87.2%. It also gave a viability, T/C [4] of 45.2%, a viability, T/C [5] of 2.1% and a viability, T/C [6] of 2.24%. It also gave a viability, T/C [7] of 101%, a viability, T/C [8] of 94.5% and a viability, T/C [9] of 72.7%. It also gave a viability, T/C [10] of 66.2%, a viability, T/C [11] of 2.87% and a viability, T/C [12] of 1.93%. It also gave a viability, T/C [13] of 123%, a viability, T/C [14] of 105% and a viability, T/C [15] of 86%. For the same compound, the viability, T/C [16] was 44.8%, the viability, T/C [17] was 2.14% and the viability, T/C [18] was 2.37%. It also gave a viability, T/C [19] of 106%, a viability, T/C [20] of 85.5% and a viability, T/C [21] of 97.8%. For the same compound, the viability, T/C [22] was 38.5%, the viability, T/C [23] was 2.21% and the viability, T/C [24] was 2.43%. It also gave a viability, T/C [25] of 95.2%, a viability, T/C [26] of 78.8% and a viability, T/C [27] of 91.1%. For the same compound, the viability, T/C [28] was 52.4%, the viability, T/C [29] was 2.89% and the viability, T/C [30] was 2.25%. It also gave a viability, T/C [31] of 80%, a viability, T/C [32] of 68.8% and a viability, T/C [33] of 81.8%. The viability, T/C [34] was 31.9%, the viability, T/C [35] was 2.89% and the viability, T/C [36] was 3.28%.
